The text below walks through data of EP4711377A1, “STEROID COMPOUND, PREPARATION METHOD THEREFOR, AND USE THEREOF” (Shujing Biopharma Co., Ltd, priority 2023, dated 2024).

The test system of series [1] is mice with PTZ-induced convulsions. Briefly: in vivo efficacy experiment in PTZ-induced epilepsy mouse model. Details: species or system C57 mice. The conditions noted are these: for Survival rate: 60 min before PTZ 120 mg/kg s.c., 30 min observation; for Number of clonic seizures / Number of tonic seizures / Clonic seizure latency period / Tonic seizure latency period: Mean ± SEM; for Clonic seizure latency period / Tonic seizure latency period: no seizure in 30 min recorded as 1800 s; for protective effects against acute epileptic seizures: conclusion in words. Here is the method:
Male C57 mice, purchased from SPF (Suzhou) Biotechnology Co., Ltd.
PTZ: a 120 mg/kg PTZ solution (administration volume: 10 mL/kg) was prepared with normal saline as the solvent.
Test compounds: solutions of the test compounds at 3/1/0.3 mg/kg (administration volume: 10 mL/kg) were prepared with Vehicle in section 1.4 as the solvent.
One hour before the test, the experimental animals were transferred into an operation room for acclimation.
The mice were randomly grouped, marked, and weighed, with 10 mice in each group. At 60 min before PTZ administration, the test compounds and Vehicle were separately orally administered.
The PTZ solution was administered subcutaneously before experimental observation, and this time point was recorded as the observation starting point.
Immediately after PTZ administration, the animals were placed in observation boxes and observed for 30 min. The following observations of the animals were recorded:
Clonic seizure: the animal has a generalized myoclonus that lasts for more than 3 s and is accompanied by falling.
Tonic seizure: the limbs are straightened at a 90° angle to the torso.
All metrology data were expressed as mean ± standard error of mean (Mean ± SEM), and the Prism 8.0 statistical software was used for data testing and analysis.

Series [2] concerns the target GABAa receptor (α1β2γ2) (Homo sapiens, UniProt P14867+P47870). In words: in vitro GABAa receptor (α1β2γ2) cellular activity assay, manual whole-cell patch clamp, enhancement of currents induced by 1 µM GABA. Format: cell-based. To be noted: for Emax compared to Sage-217: conclusion in words from Table 1-2. Here is the method:
The cells used in this experiment were derived from a CHO cell line that stably expressed normal GABAa receptor functions after transfection with human GABAa receptor α1, β2, and γ2 subunit cDNAs. The cell line was constructed by B'sys GmbH. The cells were cultured in a medium (purchased from Invitrogen) containing the following components: DMEM culture medium; 10% (v/v) inactivated fetal bovine serum; 5 µg/mL Puromycin; 250 µg/mL Hygromycin B; and 100 µg/mL Zeocin. The cells were grown in culture dishes containing the above medium and cultured in an incubator at 37 °C with 5% CO2. 12 h to 24 h before the electrophysiological experiment, the cells were transferred onto circular glass slides placed in culture dishes, and were grown under the same medium and culture conditions as above. The density of cells on each circular glass slide was required to meet the requirement that the overwhelming majority of cells were independent and individual.
In this experiment, a manual patch-clamp system HEKA EPC10 USB signal amplifier and digital conversion system (purchased from HEKA Electronics, Germany) were used for whole-cell current recording. The circular glass slides with surface-grown CHO GABAa cells (see the cell culture and requirement section above) were taken out from the culture dishes and then placed into an electrophysiological recording chamber under an inverted microscope. The recording chamber was continuously perfused with extracellular fluid (approximately 1-2 mL/min). In the experiment, the whole-cell current recording technique was employed to record chloride ion currents of GABAa channels. 1 µM GABA was used to activate chloride ion currents of GABAa channels on each cell as an initial control (the reason for using 1 µM GABA concentration was that: this concentration was an effective activation concentration for the GABAa ion channel agonist GABA on the cells used in this experiment, falling between 10% and 20%). Unless otherwise specified, the experiment was performed at conventional room temperature (about 25 °C), and only cells meeting the electrophysiological recording criteria were adopted. In the experiment, the cells were ruptured and sealed, and were clamped at -80 mV after entering a whole-cell state. 1 µM GABA acted on the cells through the drug perfusion system to induce chloride ion currents of GABAa channels; the action time was about 4 s, and the current magnitude was used as the initial control value. Subsequently, the cells were perfused and incubated with the test concentration compound for 3 min, and then a mixed solution of 1 µM GABA and the corresponding test concentration compound was applied to act on the cells to induce currents, so as to observe the enhancing effect of the test compound on the currents induced by 1 µM GABA. When the cell state stabilized, the test compound would be applied from low to high concentrations to act on the same cell. In the experiment, to avoid current reduction caused by desensitization of GABAa ion channels, the interval time for the test substance acting on the cells through the drug perfusion system was at least 180 s.
The experimental data were analyzed using data analysis software provided by HEKA Patchmaster, Microsoft Excel, and Graphpad Prism.
(In general: Patch clamp records ionic current or voltage across a cell membrane.)

In series [3] the test system is ICR mice. In words: acute toxicity experiment and side effect observation in mice. Format: in vivo. To be noted: for clinical symptoms / death: 4-8 h post-administration; for cage-side observations / main adverse reactions / tolerability: single oral administration, 2.5 to 20 mg/kg. The procedure:
(§1) This experiment aimed to evaluate the acute toxic manifestations of the test compounds following single oral intragastric administration in ICR mice, observe the recovery status of the ICR mice within 14 days post-administration, and determine the maximum tolerated dose of the test compounds.
(§2) 65 male and 65 female ICR mice were purchased from Shanghai Jihui Laboratory Animal Care Co., Ltd. After 4-5 days of acclimatization of the experimental animals, the formal experiment was carried out. The mice were housed at 5 mice/cage in a 12/12-hour light/dark cycle at a room temperature of 23±2 °C, with free access to food and water.
(§3) Based on the Vehicle in section 2.4, a certain weight of the test compound was weighed, 5% of the total volume of a DMSO liquid was first added, and the mixture was vortexed. After the drug was completely dissolved, 5% of the total volume of an HS-15 liquid was added, and the mixture was well mixed and vortexed. Finally, a 20% hydroxypropyl-β-cyclodextrin solution was added according to the remaining volume proportion, forming a 2 mg/mL clear and homogeneous solution. The solution was then proportionally diluted in a gradient to concentrations of 1 mg/mL, 0.5 mg/mL, and 0.25 mg/mL (the administration volume was 10 mL/kg).
(§4) • a. About 12-18 h before testing, animals were weighed and then grouped, and fasted overnight (water was accessible). • b. The next day, the mice were reweighed according to groups. Ten mice per group (5 males and 5 females/dose) were subjected to oral intragastric administration of the test compound or Vehicle. The day of administration was designated as Day 1. • c. […] Observation period for Day 2 to Day 14: 9:00 to 12:00.
(§5) • (1) The clinical symptoms and mortality in each group of ICR mice post-administration were recorded to determine the maximum tolerated dose. • (2) The symptom alleviation and recovery status in each group of ICR mice post-administration were recorded.

Experiment in series [4]: as above
To be noted: both sexes, ICR, mouse, in vivo; single oral intragastric administration at 2.5, 5, 10, 20 mg/kg; 14 days observation; read-out: maximum tolerated dose (MTD). Format: in vivo, ICR mice. The procedure:
as §1, §2, §3, §4, §5

[5] abbreviates: positive modulator enhancing GABAa receptor currents induced by 1 µM GABA, CHO cells, read-out: EC50.
[6] abbreviates: all dose groups (2.5/5/10/20 mg/kg).

pEC50: −log10 of the molar value. Where two headings read alike, the source gives them in different places.

Chain of GABAa receptor (α1β2γ2) (P14867 28-456): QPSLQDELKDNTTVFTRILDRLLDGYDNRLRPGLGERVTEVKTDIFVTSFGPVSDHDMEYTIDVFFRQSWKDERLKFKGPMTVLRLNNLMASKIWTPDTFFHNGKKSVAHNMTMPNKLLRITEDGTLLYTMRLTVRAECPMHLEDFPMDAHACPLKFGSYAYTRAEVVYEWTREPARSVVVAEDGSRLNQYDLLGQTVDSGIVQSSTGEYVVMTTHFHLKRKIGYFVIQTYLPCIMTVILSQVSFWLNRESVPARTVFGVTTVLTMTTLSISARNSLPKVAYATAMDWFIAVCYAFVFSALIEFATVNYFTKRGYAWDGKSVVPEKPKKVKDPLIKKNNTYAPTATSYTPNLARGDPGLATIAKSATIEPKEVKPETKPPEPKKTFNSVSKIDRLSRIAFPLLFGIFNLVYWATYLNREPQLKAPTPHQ
Chain of GABAa receptor (α1β2γ2) (P47870 25-512 limits assumed): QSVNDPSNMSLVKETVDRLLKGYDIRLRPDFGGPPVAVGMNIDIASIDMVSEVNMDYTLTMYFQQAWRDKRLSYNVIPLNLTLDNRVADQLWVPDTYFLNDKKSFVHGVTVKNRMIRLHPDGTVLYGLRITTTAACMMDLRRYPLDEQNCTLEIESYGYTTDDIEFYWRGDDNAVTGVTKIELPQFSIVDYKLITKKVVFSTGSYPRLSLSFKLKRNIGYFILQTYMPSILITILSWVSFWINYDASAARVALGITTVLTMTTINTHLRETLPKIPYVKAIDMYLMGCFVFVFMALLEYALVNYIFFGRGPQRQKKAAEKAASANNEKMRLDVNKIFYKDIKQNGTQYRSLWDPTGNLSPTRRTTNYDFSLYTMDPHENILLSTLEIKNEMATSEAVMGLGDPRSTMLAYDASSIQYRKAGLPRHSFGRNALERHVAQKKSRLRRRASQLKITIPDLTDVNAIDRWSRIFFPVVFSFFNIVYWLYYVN
Chain of GABAa receptor (α1β2γ2) (P18507 40-475 partner): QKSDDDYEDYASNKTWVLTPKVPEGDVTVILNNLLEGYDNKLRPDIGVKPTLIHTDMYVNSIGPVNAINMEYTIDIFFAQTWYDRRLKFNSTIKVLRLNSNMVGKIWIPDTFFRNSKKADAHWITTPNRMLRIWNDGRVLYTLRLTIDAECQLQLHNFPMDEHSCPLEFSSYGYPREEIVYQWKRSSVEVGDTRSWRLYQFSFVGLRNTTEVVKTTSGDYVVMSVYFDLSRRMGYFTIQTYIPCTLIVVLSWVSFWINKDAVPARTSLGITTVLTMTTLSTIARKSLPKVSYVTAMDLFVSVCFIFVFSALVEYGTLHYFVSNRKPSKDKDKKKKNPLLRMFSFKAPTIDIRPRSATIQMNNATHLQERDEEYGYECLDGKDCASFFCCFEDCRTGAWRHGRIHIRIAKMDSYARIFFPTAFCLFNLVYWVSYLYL

In the case of `C[C@@H]1C[C@H](C(=O)Cn2ncnn2)[C@@]2(C)CC[C@H]3[C@@H](CC[C@@H]4C[C@](C)(O)[C@@H](C)C[C@@H]43)[C@H]12` [Example 9, 1-((2S,3S,5R,8R,9R,10S,13S,14S,15R,17S)-3-Hydroxy-2,3,13,15-tetramethylhexadecahydro-1H-cyclopenta[a]phenanthren-17-yl)-2-(2H-tetrazol-2-yl)ethan-1-one], in series [1] (dose 0.3 mg/kg p.o.), the Survival rate is reported as 10%. The molecule also had a Survival rate in series [1] (dose 1 mg/kg p.o.) of 100%. Moreover, in series [1] (dose 3 mg/kg p.o.), the Survival rate is listed as 100%, the “Number of clonic seizures” value amounted to 0.2±0.1, the “Number of tonic seizures” value is on record as 0.0±0.0 and the “Clonic seizure latency period” value turned out to be 1649.7 ± 105.0 s. The “Tonic seizure latency period” value in series [1] (dose 3 mg/kg p.o.) came to 1800.0 ± 0.0 s. Also, in series [1] (extremely low dose (0.3 mpk)), the “protective effects against acute epileptic seizures” value (“protective effects” for short) is recorded as “partial protective effects”. The “protective effects” value in series [1] (low dose (1 mpk)) is given as “significant protective effects”. The “Emax compared to Sage-217” value in series [2] is listed as “lower Emax compared to Sage-217”. Also, the pEC50 in series [2] (setting [5]) was 7.40. Further, the clinical symptoms entry in series [3] (20 mpk group) is “gait instability”. Moreover, the death result in series [3] (setting [6]) is reported as “no death occurred”. In addition, in series [3] (all lower dose groups (below 20 mpk)), the clinical symptoms result was “returned to normal”. Further, in series [3], the “cage-side observations / main adverse reactions” value is “prostration and mild loss of righting reflex observed in some of the mice at high doses”; the tolerability entry was “all animals could tolerate it”. Further, the maximum tolerated dose (MTD) at 14 days in series [4] came to 20 mg/kg.
For `C[C@@]1(O)CC[C@H]2[C@H](CC[C@@H]3[C@@H]2CC[C@]2(C)[C@@H](C(=O)Cn4cc(C#N)cn4)CC[C@@H]32)C1` [Sage-217, reference compound], the Survival rate in series [1] (dose 0.3 mg/kg p.o.) was 0%. In series [1] (dose 1 mg/kg p.o.), this molecule yielded a Survival rate of 100%. In addition, in series [1] (dose 3 mg/kg p.o.), the Survival rate was 100%, the “Number of clonic seizures” value is recorded as 0.9±0.3, the “Number of tonic seizures” value stood at 0.0±0.0 and the “Clonic seizure latency period” value turned out to be 1012.3 ± 181.4 s. Further, the “Tonic seizure latency period” value in series [1] (dose 3 mg/kg p.o.) came to 1800.0 ± 0.0 s. Further, the “protective effects” value in series [1] (low dose (1 mpk)) is “significant protective effects”. Also, in series [2], the negative-log EC50 (pEC50) is 6.92. For the same molecule, the mortality entry in series [3] (20 mg/kg group, single oral intragastric administration) was “mortality was observed in both male and female mice”. In series [3] (20 mpk group), the clinical symptoms entry is given as “prostration symptoms”. In addition, the death in series [3] (20 mpk group, 5 males and 5 females) was 1 male and 2 female mice died. The “cage-side observations / main adverse reactions” value in series [3] was “ataxia that aggravated with the increase of dose, as well as severe loss of righting reflex observed at high doses”. For the same molecule, the MTD at 14 days in series [4] turned out to be 10 mg/kg.
Regarding `C[C@H]1C[C@H]2[C@H](CC[C@@H]3[C@@H]2CC[C@]2(C)[C@@H](C(=O)Cn4ncnn4)CC[C@@H]32)C[C@]1(C)O` [Example 20, 1-((2S,3S,5R,8R,9R,10S,13S,14S,17S)-3-Hydroxy-2,3,13-trimethylhexadecahydro-1H-cyclopenta[a]phenanthren-17-yl)-2-(2H-tetrazol-2-yl)ethan-1-one], in series [1] (dose 0.3 mg/kg p.o.), the Survival rate is 10%. This molecule gave a Survival rate in series [1] (dose 1 mg/kg p.o.) of 100%. In series [1] (dose 3 mg/kg p.o.), the “Number of clonic seizures” value was 0.0±0.0, the “Number of tonic seizures” value is listed as 0.0±0.0, the “Clonic seizure latency period” value was determined as 1800.0 ± 0.0 s and the “Tonic seizure latency period” value is 1800.0 ± 0.0 s. Also, the “protective effects” value in series [1] (extremely low dose (0.3 mpk)) is “partial protective effects”. In series [1] (low dose (1 mpk)), the “protective effects” value is recorded as “significant protective effects”. Further, in series [2], the “Emax compared to Sage-217” value is reported as “lower Emax compared to Sage-217”. In addition, the negative-log EC50 (pEC50) in series [2] (setting [5]) is 6.96. Besides, the activation at 0.1 µM in series [2] (single concentration 0.1 µM, relative enhancement amplitude of GABAa receptor currents induced by 1 µM GABA, CHO cells, read-out: Agonist ratio) was 970%. The death result in series [3] (setting [6]) is “no death occurred”. In series [3], the “cage-side observations / main adverse reactions” value was “ataxia that aggravated with the increase of dose” and the tolerability result is listed as “all animals could tolerate it”. The maximal tolerated dose (MTD) at 14 days in series [4] came out at 20 mg/kg.

What is called pEC50 is the negative decadic logarithm of the EC50, by convention in mol/L. In general, MTD refers to the highest dose tested that stayed within the study's limit of toxicity.
